Experimental data as given in PubChem BioAssay (NCI).
Values joined by “and” are separate entries in the source; they are usually repeats but may differ in a detail not shown here. Identical values can stand only once.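 Test compounds were applied to cells in 96-well plates for 48 hours at 5 doses. GI50 = concentration required for 50% inhibition of growth. TGI: total growth inhibition.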

Experiments:
Experiment in all cases: inhibition of tumour cell growth, NCI panel, 48 h
DU-145 prostate = test system: DU-145 prostate
MALME-3M melanoma = test system: MALME-3M melanoma
HT29 colon = test system: HT29 colon
SF-268 CNS = test system: SF-268 CNS
MDA-N = test system: MDA-N
UACC-62 melanoma = test system: UACC-62 melanoma
U251 CNS = test system: U251 CNS
A498 renal = test system: A498 renal
SW-620 colon = test system: SW-620 colon
HS 578T breast = test system: HS 578T breast
UACC-257 melanoma = test system: UACC-257 melanoma
KM12 colon = test system: KM12 colon

Row | SMILES | TGI (DU-145 prostate) | TGI (MALME-3M melanoma) | TGI (HT29 colon) | TGI (SF-268 CNS) | TGI (MDA-N) | TGI (UACC-62 melanoma) | TGI (U251 CNS) | TGI (A498 renal) | TGI (SW-620 colon) | TGI (HS 578T breast) | TGI (UACC-257 melanoma) | TGI (KM12 colon) | GI50 (MALME-3M melanoma) | GI50 (HT29 colon) | GI50 (SF-268 CNS) | GI50 (UACC-62 melanoma) | GI50 (U251 CNS) | GI50 (A498 renal) | GI50 (SW-620 colon) | GI50 (KM12 colon)
1 | COC(=O)CCCC(=O)C(=Nc1c(Cl)cccc1Cl)NNc1ccc(Cl)cc1 | > 100 µM | > 100 µM | > 100 µM | > 100 µM | > 100 µM | > 100 µM | > 100 µM | 88.6 µM | > 100 µM | > 100 µM | > 100 µM | > 100 µM |  |  |  |  |  |  |  | 
2 | O=C1NC(=S)NC(=O)C1C(c1ccccc1[N+](=O)[O-])C1C(=O)NC(=S)NC1=O | > 100 µM | > 100 µM | > 100 µM | > 100 µM | > 100 µM | > 100 µM | > 100 µM | > 100 µM | > 100 µM | > 100 µM | > 100 µM | > 100 µM |  |  |  |  |  |  |  | 
3 | CN1C(=O)CN(NC(=O)C2=C(O)c3ccc(Br)cc3S(=O)(=O)N2)C1=S | > 100 µM | > 100 µM | > 100 µM | > 100 µM | > 100 µM | > 100 µM | > 100 µM | > 100 µM | > 100 µM | > 100 µM | > 100 µM | > 100 µM |  |  |  |  |  |  |  | 
4 | C[C@]12CC/C(=N\O)C=C1CC[C@@H]1[C@@H]2CC[C@]2(C)C(=N/O)/C(=C/c3cccnc3)C[C@@H]12 | > 100 µM | 72.3 µM | 79.5 µM |  | 49.3 µM | 10.4 µM | 94.9 µM | 44.4 µM | > 100 µM | 18.6 µM | 57.2 µM | 32.1 µM |  |  |  |  |  |  |  | 
5 | CCn1c(=O)c2c3cc(O)ccc3oc2c2ccc(O)cc21 | > 100 µM | > 100 µM | 77.5 µM | > 100 µM | > 100 µM | > 100 µM | > 100 µM | 55.5 µM | > 100 µM | > 100 µM | > 100 µM | > 100 µM |  |  |  |  |  |  |  | 
6 | NCCCC(N)C(=O)O (centres undefined) | > 100 µM | > 100 µM | > 100 µM | > 100 µM | > 100 µM | > 100 µM | > 100 µM | > 100 µM | > 100 µM | > 100 µM | > 100 µM | > 100 µM |  |  |  |  |  |  |  | 
7 | CC(=O)OCC1OC(n2c(=S)[nH]c(-c3ccccc3)c(C#N)c2=O)C(OC(C)=O)C(OC(C)=O)C1OC(C)=O (centres undefined) | > 100 µM | > 100 µM | > 100 µM | > 100 µM | > 100 µM | > 100 µM | > 100 µM | > 100 µM | > 100 µM | > 100 µM | > 100 µM | > 100 µM |  |  |  |  |  |  |  | 
8 | COc1cc([C@@H]2c3cc4c(cc3C[C@H]3COC(=O)[C@@H]32)OCO4)cc(OC)c1OC | 0.00914 µM | > 50 µM |  | > 50 µM | 0.00582 µM | > 50 µM | 1.5 µM | 0.00969 µM and 0.0642 µM | > 50 µM | 0.00715 µM | > 5 µM | > 50 µM | 6.81 nM | 2.94 nM and 6.47 nM | 5.81 nM | 2.8 nM | 3.92 nM | 2.3 nM | 3.36 nM | 3.89 nM and 5 nM
9 | O=[N+]([O-])C(=C(Sc1ccccc1)Sc1ccccc1)C(Cl)=C(Cl)Cl | 3.43 µM | 1.37 µM | 0.487 µM | 5.37 µM | 0.675 µM | 1.94 µM | 4.21 µM | 6.94 µM | 0.228 µM | 17.6 µM | 1.1 µM | 7.03 µM |  |  |  |  |  |  |  | 
10 | Brc1ccc2c3c1[C@@H]1O[C@@H]1c1cccc(c1-3)[C@@H]1O[C@H]21 | > 72.5 µM | 41.6 µM | 53.3 µM | 63.1 µM | 53.5 µM | 35.4 µM | 40.2 µM | > 69.1 µM | 46.9 µM | 80.8 µM | 98.4 µM | 36 µM |  |  |  |  |  |  |  | 
11 | Cc1ccc(C2=Nc3c(c(C)nn3-c3ccccc3)N=C(C(=O)O)C2)cc1 | > 10 µM | > 10 µM | > 10 µM | > 10 µM | > 10 µM | > 10 µM | > 10 µM | > 10 µM | > 10 µM | > 10 µM | > 10 µM | > 10 µM |  |  |  |  |  |  |  | 
12 | CC1=CC(=O)N(n2c(C)n[nH]c2=O)C1=O | > 100 µM | > 100 µM | > 100 µM | > 100 µM | > 100 µM | > 100 µM | > 100 µM | > 100 µM | > 100 µM | > 100 µM | > 100 µM | > 100 µM |  |  |  |  |  |  |  | 
13 | O=C1/C(=C/c2ccc([N+](=O)[O-])cc2)CNC/C1=C\c1ccc([N+](=O)[O-])cc1 | 35.6 µM | > 100 µM | 3.57 µM | 4.47 µM | 25.5 µM | 29.5 µM | 1.67 µM | 37.3 µM | 1.78 µM | > 64.9 µM | > 100 µM | 4.41 µM |  |  |  |  |  |  |  | 
14 | Cc1cc(O)cc(O)c1N=Nc1ccc([N+](=O)[O-])cc1 | 79.1 µM | 87.7 µM | > 100 µM | > 100 µM | 83.9 µM | 32.2 µM | 53.9 µM | 50.9 µM | > 100 µM | 73.7 µM | 79.5 µM | 63.1 µM |  |  |  |  |  |  |  | 
15 | Cc1cccc(C[C@@]2(SCc3ccccc3)C(C)(C)[C@@H]3CC[C@@]2(C)C3)n1 | 32.2 µM | 33 µM | 31.9 µM | 29.5 µM | 60.2 µM | 35.5 µM | 30.2 µM | 28.6 µM | 30.5 µM | 49.1 µM | 29.9 µM | 36.9 µM |  |  |  |  |  |  |  | 
16 | CC(C)/C(Cl)=N\OC(=O)NNc1ccccc1 | > 100 µM | 38.3 µM | > 100 µM | > 100 µM | > 100 µM | > 100 µM | > 100 µM | > 100 µM | > 44.1 µM | > 100 µM | > 100 µM | > 100 µM |  |  |  |  |  |  |  | 
17 | CC(C)c1c(P(=O)(c2ccccc2)c2ccccc2)n(C)c2ccccc12 | > 100 µM | > 100 µM | > 100 µM | > 100 µM | > 100 µM |  | > 100 µM | > 100 µM | > 100 µM | > 100 µM | > 100 µM | > 100 µM |  |  |  |  |  |  |  | 
